This passage reports IC50 results from US10301284B2, “Therapeutic inhibitory compounds” (LifeSci Pharmaceuticals, Inc., priority 2016, dated 2019).

human Plasma Kallikrein, sequence (P03952 391-638 limits assumed): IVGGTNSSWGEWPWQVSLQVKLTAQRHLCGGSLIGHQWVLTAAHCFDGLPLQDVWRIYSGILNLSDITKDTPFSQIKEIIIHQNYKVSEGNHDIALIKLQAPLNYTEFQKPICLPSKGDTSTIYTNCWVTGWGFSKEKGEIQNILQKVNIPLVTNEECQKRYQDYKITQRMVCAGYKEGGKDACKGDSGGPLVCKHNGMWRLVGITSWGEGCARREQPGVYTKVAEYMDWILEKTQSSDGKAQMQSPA
human Plasma Kallikrein, sequence (P03952 20-390 partner limits assumed): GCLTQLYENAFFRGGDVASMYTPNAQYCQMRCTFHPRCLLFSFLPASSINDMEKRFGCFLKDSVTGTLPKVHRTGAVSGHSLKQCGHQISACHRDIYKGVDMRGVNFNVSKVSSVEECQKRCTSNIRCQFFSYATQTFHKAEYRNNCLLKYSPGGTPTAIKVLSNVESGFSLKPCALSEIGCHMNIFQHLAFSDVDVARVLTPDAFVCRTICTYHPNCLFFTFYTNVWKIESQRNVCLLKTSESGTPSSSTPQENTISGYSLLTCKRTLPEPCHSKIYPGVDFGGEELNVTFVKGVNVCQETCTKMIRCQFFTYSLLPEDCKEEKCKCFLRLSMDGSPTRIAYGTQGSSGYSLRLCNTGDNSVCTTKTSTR

The test concerns the target human Plasma Kallikrein (Homo sapiens (Human), UniProt P03952). Kind of test: In vitro enzyme inhibition of human plasma kallikrein (Pro-Phe-Arg-AMC cleavage). It counts as biochemical. Particulars: human plasma kallikrein, PFR-AMC substrate, 37° C.; read-out: hPK IC50. As for the experimental part: The ability of the compounds disclosed herein to inhibit human plasma kallikrein activity was quantified according to the procedures below.
A 10 mM solution of the test compound was made in DMSO. This solution was serially diluted 1:5 in DMSO to yield 2000, 400, 80, 16, 3.2, 0.64, 0.128, 0.0256 and 0.00512 μM compound test solutions. A control tube containing only DMSO is included. 16 μL of each compound test solution was combined with 384 μL of assay buffer (50 mM Tris-HCl pH 7.5, 150 mM NaCl, 0.01% Triton X-100) to yield a “4× test compound buffer stock”.
Separately, a 40 nM solution of human Plasma Kallikrein (Abcam) and a 93.6 μM solution Pro-Phe-Arg-AMC (Bachem) were made using assay buffer. These solutions are hereby referred to as 4×hPK and 2×PFR-AMC, respectively.
60 μL of each 4× test compound buffer stock was combined with 60 μL of 4×hPK to yield 120 μL of “2× test compound buffer stock/2×hPK”. 50 μL was removed from this mixture and placed into duplicate wells on a Microfluor 1Black U-bottom microtiter plate (Thermo Scientific). This plate was incubated for 5 minutes at 37° C. To each well, 50 μL of pre-warmed 2×PFR-AMC was added to start the enzymatic reaction. Cleavage of PFR-AMC was monitored in a Biotek Synergy H4 reader set at 37° C. Readings are taken every 43 seconds for 1 hour. The highest mean velocity over 20 reads (˜15 minutes) is used to calculate the IC50. The IC50 is calculated using the Gen5 (Biotek Instruments).
The ability of the compounds listed in Table 2 to inhibit human plasma kallikrein activity was determined.
The term IC50 denotes the concentration needed to halve the response being measured. For `Cc1cc(N)nc(C)c1CNC(=O)c1nn(Cc2ccc3ncc(Cl)cc3c2)c2ccnc(C#N)c12` [Example 76, N-((6-amino-2,4-dimethylpyridin-3-yl)methyl)-1-((3-chloroquinolin-6-yl)methyl)-4-cyano-1H-pyrazolo[4,3-c]pyridine-3-carboxamide], the IC50 was less than 100 nM.

As to `Cc1nc(N)ccc1CNC(=O)c1cn(Cc2ccc3ncc(Cl)cc3c2)nc1C#N` [Example 77, N-((6-amino-2-methylpyridin-3-yl)methyl)-1-((3-chloroquinolin-6-yl)methyl)-3-cyano-1H-pyrazole-4-carboxamide], the IC50 is less than 100 nM.

With `Cc1nc(N)ccc1CNC(=O)c1nnc(Cc2ccc3ncc(Cl)cc3c2)o1` [Example 79, N-((6-amino-2-methylpyridin-3-yl)methyl)-5-((3-chloroquinolin-6-yl)methyl)-1,3,4-oxadiazole-2-carboxamide], the IC50 lay in the range of 100 to 1000 nM.

As for `Cc1cc(N)nc(C)c1CNC(=O)c1cnc(C(=O)c2ccc3ncc(Cl)cc3c2)o1` [Example 80, N-((6-amino-2,4-dimethylpyridin-3-yl)methyl)-2-(3-chloroquinoline-6-carbonyl)oxazole-5-carboxamide], the IC50 was more than 10000 nM.

In the case of `Cc1nc(N)ccc1CNC(=O)c1coc(Cc2ccc3ncc(Cl)cc3c2)n1` [Example 83, N-((6-amino-2-methylpyridin-3-yl)methyl)-2-((3-chloroquinolin-6-yl)methyl)oxazole-4-carboxamide], the IC50 was in the range of 100 to 1000 nM.

On to `Cc1nc(N)ccc1CNC(=O)c1ncc(Cc2ccc3ncc(Cl)cc3c2)o1` [Example 84, N-((6-amino-2-methylpyridin-3-yl)methyl)-5-((3-chloroquinolin-6-yl)methyl)oxazole-2-carboxamide], for which the IC50 is less than 100 nM.

Take `Cc1nc(N)ccc1CNC(=O)c1cn(Cc2ccc3ncc(Cl)cc3c2)nc1C` [Example 85, N-((6-amino-2-methylpyridin-3-yl)methyl)-1-((3-chloroquinolin-6-yl)methyl)-3-methyl-1H-pyrazole-4-carboxamide]: the IC50 is less than 100 nM.

With `Cc1cc(N)nc(C)c1CNC(=O)c1nnc(Cc2cc(C(C)(C)O)c3ncc(Cl)cc3c2)o1` [Example 86, N-((6-amino-2,4-dimethylpyridin-3-yl)methyl)-5-((3-chloro-8-(2-hydroxypropan-2-yl)quinolin-6-yl)methyl)-1,3,4-oxadiazole-2-carboxamide], the IC50 was less than 100 nM.

On to `Cc1cc(N)nc(C)c1CNC(=O)c1oc(Cc2ccc3ncc(Cl)cc3c2)nc1C#N` [Example 87, N-((6-amino-2,4-dimethylpyridin-3-yl)methyl)-2-((3-chloroquinolin-6-yl)methyl)-4-cyanooxazole-5-carboxamide], for which the IC50 is less than 100 nM.

Regarding `Cc1nc(N)ccc1CNC(=O)c1oc(Cc2ccc3ncc(Cl)cc3c2)nc1C#N` [Example 88, N-((6-amino-2-methylpyridin-3-yl)methyl)-2-((3-chloroquinolin-6-yl)methyl)-4-cyanooxazole-5-carboxamide], the IC50 was 100 to 1000 nM.

Consider `Cc1cc(N)nc(C)c1CNC(=O)c1cnc(Cc2ccc3ncc(Cl)cc3c2)o1` [Example 89, N-((6-amino-2,4-dimethylpyridin-3-yl)methyl)-2-((3-chloroquinolin-6-yl)methyl)oxazole-5-carboxamide], for which the IC50 was less than 100 nM.

As to `Cc1nc(N)ccc1CNC(=O)c1cnc(Cc2ccc3ncc(Cl)cc3c2)o1` [Example 90, N-((6-amino-2-methylpyridin-3-yl)methyl)-2-((3-chloroquinolin-6-yl)methyl)oxazole-5-carboxamide], the IC50 is less than 100 nM.

Turning to `Cc1cc(N)nc(C)c1CNC(=O)c1cn(Cc2ccc3ncc(Cl)cc3c2)nc1C(F)F` [Example 91, N-((6-amino-2,4-dimethylpyridin-3-yl)methyl)-1-((3-chloroquinolin-6-yl)methyl)-3-(difluoromethyl)-1H-pyrazole-4-carboxamide], the half-inhibitory concentration (IC50) is less than 100 nM.

In the case of `Cc1cc(N)nc(C)c1CNC(=O)c1cn(Cc2ccc3ncc(Cl)cc3c2)nc1CO` [Example 92, N-((6-amino-2,4-dimethylpyridin-3-yl)methyl)-1-((3-chloroquinolin-6-yl)methyl)-3-(hydroxymethyl)-1H-pyrazole-4-carboxamide], the IC50 is less than 100 nM.

Turning to `Cc1cc(N)nc(C)c1CNC(=O)c1cn(Cc2ccc3ncc(Cl)cc3c2)nc1CF` [Example 93, N-((6-amino-2,4-dimethylpyridin-3-yl)methyl)-1-((3-chloroquinolin-6-yl)methyl)-3-(fluoromethyl)-1H-pyrazole-4-carboxamide], the IC50 is less than 100 nM.

Regarding `Cc1cc(N)nc(C)c1CNC(=O)c1cn(Cc2ccc3ncc(Cl)cc3c2)nc1C(C)O` (centres unmarked) [Example 94, N-((6-amino-2,4-dimethylpyridin-3-yl)methyl)-1-((3-chloroquinolin-6-yl)methyl)-3-(1-hydroxyethyl)-1H-pyrazole-4-carboxamide], the IC50 is less than 100 nM.

Regarding `Cc1nc(N)ccc1CNC(=O)c1nnc(Cc2ccc3ncc(Cl)cc3c2)[nH]1` [Example 97, N-((6-amino-2-methylpyridin-3-yl)methyl)-5-((3-chloroquinolin-6-yl)methyl)-4H-1,2,4-triazole-3-carboxamide], the IC50 is less than 100 nM.

For the compound `Cc1cc(N)nc(C)c1CNC(=O)c1nc(Cc2ccc3ncc(Cl)cc3c2)nn1C` [Example 99, N-((6-amino-2,4-dimethylpyridin-3-yl)methyl)-3-((3-chloroquinolin-6-yl)methyl)-1-methyl-1H-1,2,4-triazole-5-carboxamide], the IC50 is less than 100 nM.

Regarding `Cc1cc(N)nc(C)c1CNC(=O)c1nc(Br)n(Cc2ccc3ncc(Cl)cc3c2)n1` [Example 100, N-((6-amino-2,4-dimethylpyridin-3-yl)methyl)-5-bromo-1-((3-chloroquinolin-6-yl)methyl)-1H-1,2,4-triazole-3-carboxamide], the IC50 is less than 100 nM.

For the compound `Cc1cc(N)nc(C)c1CNC(=O)c1nc(C#N)n(Cc2ccc3ncc(Cl)cc3c2)n1` [Example 101, N-((6-amino-2,4-dimethylpyridin-3-yl)methyl)-1-((3-chloroquinolin-6-yl)methyl)-5-cyano-1H-1,2,4-triazole-3-carboxamide], the IC50 is more than 10000 nM.

Regarding `COC(=O)c1nc(C(=O)NCc2c(C)cc(N)nc2C)nn1Cc1ccc2ncc(Cl)cc2c1` [Example 102, methyl 3-(((6-amino-2,4-dimethylpyridin-3-yl)methyl)carbamoyl)-1-((3-chloroquinolin-6-yl)methyl)-1H-1,2,4-triazole-5-carboxylate], the IC50 was more than 10000 nM.

Turning to `Cc1cc(N)nc(C)c1CNC(=O)c1c[nH]c(Cc2ccc3ncc(Cl)cc3c2)n1` [Example 103, N-((6-amino-2,4-dimethylpyridin-3-yl)methyl)-2-((3-chloroquinolin-6-yl)methyl)-1H-imidazole-4-carboxamide], the 50% inhibitory concentration (IC50) was less than 100 nM.

For `Cc1cc(N)nc(C)c1CNC(=O)c1cn(C)c(Cc2ccc3ncc(Cl)cc3c2)n1` [Example 104, N-((6-amino-2,4-dimethylpyridin-3-yl)methyl)-2-((3-chloroquinolin-6-yl)methyl)-1-methyl-1H-imidazole-4-carboxamide], the IC50 is more than 10000 nM.

For the compound `Cc1cc(N)nc(C)c1CNC(=O)c1cnc(Cc2ccc3ncc(Cl)cc3c2)n1C` [Example 105, N-((6-amino-2,4-dimethylpyridin-3-yl)methyl)-2-((3-chloroquinolin-6-yl)methyl)-1-methyl-1H-imidazole-5-carboxamide], the IC50 lay within 1000 to 10000 nM.

As to `Cc1cc(N)nc(C)c1CNC(=O)c1[nH]c(Cc2ccc3ncc(Cl)cc3c2)nc1Br` [Example 106, N-((6-amino-2,4-dimethylpyridin-3-yl)methyl)-4-bromo-2-((3-chloroquinolin-6-yl)methyl)-1H-imidazole-5-carboxamide], the IC50 is less than 100 nM.

For the compound `Cc1cc(N)nc(C)c1CNC(=O)c1cc(C#N)n(Cc2ccc3ncc(Cl)cc3c2)n1` [Example 108, N-((6-amino-2,4-dimethylpyridin-3-yl)methyl)-1-((3-chloroquinolin-6-yl)methyl)-5-cyano-1H-pyrazole-3-carboxamide], the IC50 was 100 to 1000 nM.

In the case of `Cc1cc(N)nc(C)c1CNC(=O)c1cc(C#N)nn1Cc1ccc2ncc(Cl)cc2c1` [Example 109, N-((6-amino-2,4-dimethylpyridin-3-yl)methyl)-1-((3-chloroquinolin-6-yl)methyl)-3-cyano-1H-pyrazole-5-carboxamide], the IC50 is more than 10000 nM.

Take `Cc1cc(N)nc(C)c1CNC(=O)c1cn(Cc2ccc3ncc(Cl)cc3c2)c(C(N)=O)n1` [Example 111, N4-((6-amino-2,4-dimethylpyridin-3-yl)methyl)-1-((3-chloroquinolin-6-yl)methyl)-1H-imidazole-2,4-dicarboxamide]: the IC50 was 100 to 1000 nM.

For `Cc1cc(N)nc(C)c1CNC(=O)c1cn(Cc2ccc3ncc(Cl)cc3c2)c(CN)n1` [Example 112, N-((6-amino-2,4-dimethylpyridin-3-yl)methyl)-2-(aminomethyl)-1-((3-chloroquinolin-6-yl)methyl)-1H-imidazole-4-carboxamide], the IC50 is 100 to 1000 nM.
